Read-outs that look alike come from different tables or passages of the source.
Key:
Assay type in all cases: cell-based
T-type calcium channel [1] = biological target: T-type calcium channel (Homo sapiens, UniProt O43497); assay: T-type channel blocking, FLIPR data (Table 6); details: CAv3.1
Description: (§1) Another method, high-throughput spectrophotometric assay, utilizes loading of the cell lines with a fluorescent dye sensitive to intracellular calcium concentration and subsequent examination of the effects of compounds on the ability of depolarization by potassium chloride or other means to alter intracellular calcium levels.

T-type calcium channel [2] = biological target: T-type calcium channel (Homo sapiens, UniProt O95180); assay: T-type channel blocking, FLIPR data (Table 6); details: for CAv3.2 IC50 Ratio closed/inact.: CAv3.2, ratio closed/inactivated IC50
Description: as §1

CAv1.2 = CAv1.2 (Homo sapiens, UniProt Q13936); assay: FLIPR data, CAv1.2 channel blocking (Table 6); details: for CAv1.2 IC50 Ratio closed/inact.: ratio closed/inactivated IC50
Human Cav 2.2 channels = Human Cav 2.2 channels (Homo sapiens, UniProt Q00975); assay: Fluorescent assay for CaV2.2 channels using potassium depolarization (VIPR/FLIPR); details: FLIPR data; for CAv2.2 IC50 Ratio closed/inact.: ratio closed/inactivated IC50
Method in brief: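 Fluo-4 calcium fluorescence (480/535 nm) was recorded on VIPR or FLIPR after depolarization to 70 mM final potassium. Before this, cells were preincubated 30 min at 25 °C with compound in 4–30 mM potassium, so that state-dependent block could be assessed; the cells were HEK293 coexpressing Cav2.2, α2δ, β and Kir2.3.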

[3] = CAv3.2, closed state, read-out: CAv3.2 IC50 Closed
[4] = CAv3.2, inactivated state, read-out: CAv3.2 IC50 Inact.
[5] = closed state, read-out: CAv1.2 IC50 Closed
[6] = inactivated state, read-out: CAv1.2 IC50 Inact.
[7] = closed state, read-out: CAv2.2 IC50 Closed
[8] = inactivated state, read-out: CAv2.2 IC50 Inact.

Chain of T-type calcium channel (Homo sapiens, UniProt O43497) (O43497 whole entry): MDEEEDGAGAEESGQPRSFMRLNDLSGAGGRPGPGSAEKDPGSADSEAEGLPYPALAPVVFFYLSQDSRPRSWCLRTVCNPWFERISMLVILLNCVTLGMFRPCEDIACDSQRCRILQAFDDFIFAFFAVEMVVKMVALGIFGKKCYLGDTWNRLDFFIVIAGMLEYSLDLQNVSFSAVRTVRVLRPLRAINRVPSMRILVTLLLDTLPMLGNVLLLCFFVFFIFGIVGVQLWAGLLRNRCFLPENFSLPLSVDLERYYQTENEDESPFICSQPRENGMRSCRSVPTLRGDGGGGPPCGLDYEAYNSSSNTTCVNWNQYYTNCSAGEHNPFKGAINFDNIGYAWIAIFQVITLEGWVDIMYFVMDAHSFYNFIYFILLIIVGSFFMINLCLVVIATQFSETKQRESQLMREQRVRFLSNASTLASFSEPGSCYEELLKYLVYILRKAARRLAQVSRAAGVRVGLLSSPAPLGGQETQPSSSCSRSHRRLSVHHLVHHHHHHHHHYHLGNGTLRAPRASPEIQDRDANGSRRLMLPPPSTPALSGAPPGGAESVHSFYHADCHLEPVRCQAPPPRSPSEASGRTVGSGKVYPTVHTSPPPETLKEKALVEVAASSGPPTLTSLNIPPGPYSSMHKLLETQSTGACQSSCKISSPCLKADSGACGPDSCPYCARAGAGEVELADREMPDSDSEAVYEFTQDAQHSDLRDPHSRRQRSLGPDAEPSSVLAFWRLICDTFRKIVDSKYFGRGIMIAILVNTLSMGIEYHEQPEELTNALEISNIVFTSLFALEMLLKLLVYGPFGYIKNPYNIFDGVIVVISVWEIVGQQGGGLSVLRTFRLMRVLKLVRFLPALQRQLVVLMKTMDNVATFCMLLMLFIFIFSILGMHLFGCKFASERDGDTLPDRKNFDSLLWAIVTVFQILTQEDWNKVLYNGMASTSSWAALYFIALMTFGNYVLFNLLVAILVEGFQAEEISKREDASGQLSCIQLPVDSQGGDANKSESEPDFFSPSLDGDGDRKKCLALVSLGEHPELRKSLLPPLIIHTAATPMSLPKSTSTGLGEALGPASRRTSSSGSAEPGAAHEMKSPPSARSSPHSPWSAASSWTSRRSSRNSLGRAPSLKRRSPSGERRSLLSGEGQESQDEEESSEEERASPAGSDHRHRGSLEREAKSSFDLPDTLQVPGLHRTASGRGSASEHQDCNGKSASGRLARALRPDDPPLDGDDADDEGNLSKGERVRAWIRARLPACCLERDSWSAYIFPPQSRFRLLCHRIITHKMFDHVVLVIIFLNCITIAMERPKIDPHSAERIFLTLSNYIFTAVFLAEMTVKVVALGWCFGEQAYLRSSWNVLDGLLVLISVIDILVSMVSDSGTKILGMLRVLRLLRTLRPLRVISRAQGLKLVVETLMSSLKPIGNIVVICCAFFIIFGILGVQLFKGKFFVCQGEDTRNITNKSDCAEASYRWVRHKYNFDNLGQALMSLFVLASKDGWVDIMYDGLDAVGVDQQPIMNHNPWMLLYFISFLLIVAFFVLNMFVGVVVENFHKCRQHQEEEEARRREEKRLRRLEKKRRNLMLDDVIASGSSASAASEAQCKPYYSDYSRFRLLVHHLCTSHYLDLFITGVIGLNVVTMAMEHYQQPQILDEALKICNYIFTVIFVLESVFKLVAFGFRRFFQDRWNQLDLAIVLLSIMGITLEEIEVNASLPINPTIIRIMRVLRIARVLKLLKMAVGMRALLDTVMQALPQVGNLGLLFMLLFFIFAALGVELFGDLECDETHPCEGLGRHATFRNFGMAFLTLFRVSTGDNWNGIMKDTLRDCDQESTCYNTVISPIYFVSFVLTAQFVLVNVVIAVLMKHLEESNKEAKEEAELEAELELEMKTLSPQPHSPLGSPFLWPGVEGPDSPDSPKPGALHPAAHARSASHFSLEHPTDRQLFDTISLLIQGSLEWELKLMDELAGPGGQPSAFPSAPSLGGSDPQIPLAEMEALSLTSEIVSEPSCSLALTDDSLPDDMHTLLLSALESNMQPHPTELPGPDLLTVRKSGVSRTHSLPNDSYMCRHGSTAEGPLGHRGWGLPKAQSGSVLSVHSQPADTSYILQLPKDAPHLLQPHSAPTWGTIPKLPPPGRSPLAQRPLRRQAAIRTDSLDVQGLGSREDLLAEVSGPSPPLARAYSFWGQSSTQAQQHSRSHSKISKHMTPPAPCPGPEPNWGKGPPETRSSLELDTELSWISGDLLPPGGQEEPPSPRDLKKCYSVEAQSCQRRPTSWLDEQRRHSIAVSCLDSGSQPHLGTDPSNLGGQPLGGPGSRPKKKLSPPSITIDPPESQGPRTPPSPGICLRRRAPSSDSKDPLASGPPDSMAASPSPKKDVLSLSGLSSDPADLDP
Chain of T-type calcium channel (Homo sapiens, UniProt O95180) (O95180 whole entry): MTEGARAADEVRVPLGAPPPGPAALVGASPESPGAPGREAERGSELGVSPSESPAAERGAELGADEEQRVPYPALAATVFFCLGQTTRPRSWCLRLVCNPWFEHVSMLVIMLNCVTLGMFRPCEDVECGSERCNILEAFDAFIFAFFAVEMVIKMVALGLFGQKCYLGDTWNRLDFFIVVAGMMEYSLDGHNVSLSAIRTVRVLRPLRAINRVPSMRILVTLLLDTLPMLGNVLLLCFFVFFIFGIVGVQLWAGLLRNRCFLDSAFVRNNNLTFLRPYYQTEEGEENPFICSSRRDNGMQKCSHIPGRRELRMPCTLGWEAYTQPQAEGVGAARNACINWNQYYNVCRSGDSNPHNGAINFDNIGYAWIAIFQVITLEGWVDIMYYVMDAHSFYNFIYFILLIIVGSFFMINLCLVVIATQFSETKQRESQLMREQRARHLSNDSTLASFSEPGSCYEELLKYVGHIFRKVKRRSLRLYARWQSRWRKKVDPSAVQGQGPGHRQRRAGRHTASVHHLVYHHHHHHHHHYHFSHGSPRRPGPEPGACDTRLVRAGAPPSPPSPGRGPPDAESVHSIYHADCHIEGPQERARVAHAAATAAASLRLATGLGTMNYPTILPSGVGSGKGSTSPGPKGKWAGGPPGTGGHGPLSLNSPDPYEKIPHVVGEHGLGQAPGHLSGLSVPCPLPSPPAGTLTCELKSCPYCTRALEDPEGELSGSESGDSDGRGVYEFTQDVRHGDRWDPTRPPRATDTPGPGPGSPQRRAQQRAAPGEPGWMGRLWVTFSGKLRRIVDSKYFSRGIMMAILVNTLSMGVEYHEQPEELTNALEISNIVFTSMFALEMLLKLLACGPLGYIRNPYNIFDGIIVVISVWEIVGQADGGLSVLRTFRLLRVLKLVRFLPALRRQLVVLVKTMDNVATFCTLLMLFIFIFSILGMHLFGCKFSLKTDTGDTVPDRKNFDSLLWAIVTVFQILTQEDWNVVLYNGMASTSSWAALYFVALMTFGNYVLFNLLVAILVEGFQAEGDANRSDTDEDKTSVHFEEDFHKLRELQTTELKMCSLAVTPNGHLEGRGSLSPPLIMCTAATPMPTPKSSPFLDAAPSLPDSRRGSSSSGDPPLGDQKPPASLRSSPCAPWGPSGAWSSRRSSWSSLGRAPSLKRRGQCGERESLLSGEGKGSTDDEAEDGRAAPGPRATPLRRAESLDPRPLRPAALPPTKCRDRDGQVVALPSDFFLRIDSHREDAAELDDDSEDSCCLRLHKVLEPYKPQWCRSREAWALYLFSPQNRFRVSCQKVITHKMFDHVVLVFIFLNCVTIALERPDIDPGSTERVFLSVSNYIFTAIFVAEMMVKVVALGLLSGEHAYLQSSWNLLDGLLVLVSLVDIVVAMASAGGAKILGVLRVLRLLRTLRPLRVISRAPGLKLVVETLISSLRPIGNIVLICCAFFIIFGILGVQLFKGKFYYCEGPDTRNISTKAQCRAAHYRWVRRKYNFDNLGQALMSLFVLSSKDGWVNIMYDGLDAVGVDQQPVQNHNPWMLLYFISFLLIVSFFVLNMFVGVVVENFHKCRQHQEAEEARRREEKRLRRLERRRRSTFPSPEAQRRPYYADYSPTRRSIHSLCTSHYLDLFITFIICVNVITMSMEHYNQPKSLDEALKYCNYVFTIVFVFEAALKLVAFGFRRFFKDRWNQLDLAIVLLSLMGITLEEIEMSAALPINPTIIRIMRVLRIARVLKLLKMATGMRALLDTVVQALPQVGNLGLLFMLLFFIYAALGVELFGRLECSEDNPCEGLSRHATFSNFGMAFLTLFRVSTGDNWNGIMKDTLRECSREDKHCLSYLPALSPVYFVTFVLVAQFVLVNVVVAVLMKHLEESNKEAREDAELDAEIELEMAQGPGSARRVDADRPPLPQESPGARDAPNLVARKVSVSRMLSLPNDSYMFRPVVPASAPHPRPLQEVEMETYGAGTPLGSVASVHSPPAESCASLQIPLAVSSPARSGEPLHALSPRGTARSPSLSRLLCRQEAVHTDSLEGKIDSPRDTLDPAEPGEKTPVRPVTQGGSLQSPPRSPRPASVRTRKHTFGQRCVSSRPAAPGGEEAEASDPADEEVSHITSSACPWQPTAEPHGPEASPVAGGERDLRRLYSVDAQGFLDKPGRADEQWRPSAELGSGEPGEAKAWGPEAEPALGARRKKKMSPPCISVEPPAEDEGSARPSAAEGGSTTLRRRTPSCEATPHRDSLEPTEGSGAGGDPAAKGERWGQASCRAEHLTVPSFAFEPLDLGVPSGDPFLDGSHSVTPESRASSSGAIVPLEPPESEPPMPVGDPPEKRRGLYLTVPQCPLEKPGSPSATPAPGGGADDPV

SMILES | IC50 (T-type calcium channel [1]) | IC50 (T-type calcium channel [2]; [3]) | IC50 (T-type calcium channel [2]; [4]) | CAv3.2 IC50 Ratio closed/inact. (T-type calcium channel [2]) | IC50 (Human Cav 2.2 channels; [7]) | IC50 (Human Cav 2.2 channels; [8]) | CAv2.2 IC50 Ratio closed/inact. (Human Cav 2.2 channels) | IC50 (CAv1.2; [5]) | IC50 (CAv1.2; [6]) | CAv1.2 IC50 Ratio closed/inact. (CAv1.2)
O=C(NC[C@H]1C[C@H](S(=O)(=O)c2cccc(C(F)(F)F)c2)C1)c1ccc(C(F)(F)F)nc1 [Compound 571] | ≥ 10 µM | ≥ 10 µM | 10 µM | 1 | 10 µM | 0.42 µM | 23.8 | ≥ 10 µM | ≥ 10 µM | –
O=C(NC[C@H]1C[C@H](S(=O)(=O)c2cccc(C(F)(F)F)c2)C1)c1ccc(C(F)(F)F)cc1 [Compound 572] | 8.16 µM | 2.6 µM | 1.68 µM | 1.5 | 3.54 µM | 0.27 µM | 13.1 | 7.35 µM | 3.01 µM | 2.4
CC(C)([C@H]1C[C@@H](NC(=O)c2ccc(C(F)(F)F)cn2)C1)S(=O)(=O)c1cccc(C(F)(F)F)c1 [Compound 575] | ≥ 10 µM | 5.72 µM | 4.45 µM | 1.3 | 3.21 µM | 0.28 µM | 11.5 | 7.52 µM | 5.36 µM | 1.4
CC(C)([C@H]1C[C@@H](NC(=O)c2ccc(C(F)(F)F)nc2)C1)S(=O)(=O)c1cccc(C(F)(F)F)c1 [Compound 576] | ≥ 10 µM | ≥ 10 µM | 9.9 µM | 1 | 8.56 µM | 0.44 µM | 19.5 | ≥ 10 µM | 9.62 µM | 1
CC(C)([C@H]1C[C@@H](NC(=O)c2cnc(C(F)(F)F)nc2)C1)S(=O)(=O)c1cccc(C(F)(F)F)c1 [Compound 579] | ≥ 10 µM | ≥ 10 µM | 10 µM | 1 | 10 µM | 0.66 µM | 15.2 | ≥ 10 µM | 9.95 µM | 1
CC(C)([C@H]1C[C@@H](NC(=O)c2ccc(Cl)cc2S(C)(=O)=O)C1)S(=O)(=O)c1cccc(C(F)(F)F)c1 [Compound 580] | ≥ 10 µM | ≥ 10 µM | 10 µM | 1 | 10 µM | 0.26 µM | 38.5 | ≥ 10 µM | ≥ 10 µM | –
CC(C)([C@H]1C[C@@H](NC(=O)c2ccc(C(F)(F)F)cc2)C1)S(=O)(=O)c1cccc(C(F)(F)F)c1 [Compound 581] | 4.84 µM | 3.07 µM | 0.66 µM | 4.7 | 2.43 µM | 0.13 µM | 18.7 | 3.87 µM | 1.48 µM | 2.6
CC(C)([C@H]1C[C@@H](NC(=O)c2ccc(OCC(F)(F)F)nc2)C1)S(=O)(=O)c1cccc(C(F)(F)F)c1 [Compound 582] | ≥ 10 µM | 4.35 µM | 1.31 µM | 3.3 | 2.88 µM | 0.19 µM | 15.2 | 5.77 µM | 2.06 µM | 2.8
CC(C)S(=O)(=O)c1cc(C(F)(F)F)cnc1C(=O)N[C@H]1C[C@@H](C(C)(C)S(=O)(=O)c2cc(F)cc(C(F)(F)F)c2)C1 [Compound 586] | ≥ 10 µM | ≥ 10 µM | 10 µM | 1 | 10 µM | 0.48 µM | 20.8 | ≥ 10 µM | 9.37 µM | 1.1
CC(C)S(=O)(=O)c1cc(C(F)(F)F)cnc1C(=O)N[C@H]1C[C@H](C(C)(C)S(=O)(=O)c2cc(F)cc(C(F)(F)F)c2)C1 [Compound 593] | ≥ 10 µM | ≥ 10 µM | 10.4 µM | 1 | 10 µM | 0.16 µM | 62.5 | ≥ 10 µM | 7.86 µM | 1.3
CC(C)([C@H]1C[C@@H](NS(=O)(=O)c2ccc(C(F)(F)F)cc2)C1)S(=O)(=O)c1cc(F)cc(C(F)(F)F)c1 [Compound 598] | 7.56 µM | ≥ 10 µM | 4.56 µM | 2.2 | 5.74 µM | 0.7 µM | 8.2 | 9.38 µM | 2.83 µM | 3.3

Further lines, with some results ahead:

IC50 (T-type calcium channel [1]) | IC50 (T-type calcium channel [2]; [3]) | IC50 (T-type calcium channel [2]; [4]) | CAv3.2 IC50 Ratio closed/inact. (T-type calcium channel [2]) | IC50 (Human Cav 2.2 channels; [7]) | IC50 (Human Cav 2.2 channels; [8]) | CAv2.2 IC50 Ratio closed/inact. (Human Cav 2.2 channels) | SMILES | IC50 (CAv1.2; [5]) | IC50 (CAv1.2; [6]) | CAv1.2 IC50 Ratio closed/inact. (CAv1.2)
≥ 10 µM | 7.71 µM | 5.3 µM | 1.5 | 3.46 µM | 0.46 µM | 7.5 | CC(C)([C@H]1C[C@@H](NC(=O)c2ccc(Cl)cn2)C1)S(=O)(=O)c1cccc(C(F)(F)F)c1 [Compound 578] | 9.07 µM | 8.38 µM | 1.1
≥ 10 µM | – | – | – | 10 µM | 1.7 µM | 5.9 | CC(C)([C@H]1C[C@@H](NC(=O)c2ncc(C(F)(F)F)cc2S(C)(=O)=O)C1)S(=O)(=O)c1cc(F)cc(C(F)(F)F)c1 [Compound 584] | ≥ 10 µM | ≥ 10 µM | –
≥ 10 µM | 6.56 µM | 3.6 µM | 1.8 | 5.55 µM | 0.72 µM | 7.7 | CC(C)([C@H]1C[C@@H](NC(=O)c2cc(C(F)(F)F)n[nH]2)C1)S(=O)(=O)c1cc(F)cc(C(F)(F)F)c1 [Compound 587] | ≥ 10 µM | 4.85 µM | 2.1
4.03 µM | 4.14 µM | 1.07 µM | 3.9 | 2.37 µM | 0.27 µM | 8.8 | CC(C)([C@H]1C[C@@H](NC(=O)c2ccc(Cl)c(F)c2)C1)S(=O)(=O)c1cc(F)cc(C(F)(F)F)c1 [Compound 589] | 4.91 µM | 1.8 µM | 2.7
6.85 µM | 4.3 µM | 1.37 µM | 3.1 | 2.83 µM | 0.34 µM | 8.3 | CC(C)([C@H]1C[C@@H](NC(=O)c2ccc(F)c(Cl)c2)C1)S(=O)(=O)c1cc(F)cc(C(F)(F)F)c1 [Compound 590] | 5.33 µM | 1.7 µM | 3.1
≥ 10 µM | – | – | – | 10 µM | 1.15 µM | 8.7 | CC(C)([C@H]1C[C@H](NC(=O)c2ncc(C(F)(F)F)cc2S(C)(=O)=O)C1)S(=O)(=O)c1cc(F)cc(C(F)(F)F)c1 [Compound 591] | – | ≥ 10 µM | –
≥ 10 µM | ≥ 10 µM | 9.83 µM | 1 | 3.63 µM | 0.21 µM | 17.3 | CC(C)([C@H]1C[C@H](NC(=O)c2ccnc(C(F)(F)F)n2)C1)S(=O)(=O)c1cc(F)cc(C(F)(F)F)c1 [Compound 595] | ≥ 10 µM | ≥ 10 µM | –
9.74 µM | 3.13 µM | 1.11 µM | 2.8 | 1.73 µM | 0.26 µM | 6.7 | CC(C)([C@H]1C[C@H](NC(=O)c2ccc(Cl)c(F)c2)C1)S(=O)(=O)c1cc(F)cc(C(F)(F)F)c1 [Compound 596] | 3.63 µM | 1.43 µM | 2.5
3.8 µM | 3.12 µM | 1.21 µM | 2.6 | 1.43 µM | 0.17 µM | 8.4 | CC(C)([C@H]1C[C@H](NC(=O)c2ccc(F)c(Cl)c2)C1)S(=O)(=O)c1cc(F)cc(C(F)(F)F)c1 [Compound 597] | 3.7 µM | 0.86 µM | 4.3
5.59 µM | ≥ 10 µM | 4.4 µM | 2.3 | 6.14 µM | 1.03 µM | 6 | CC(C)([C@H]1C[C@@H](NS(=O)(=O)c2ccc(F)c(Cl)c2)C1)S(=O)(=O)c1cc(F)cc(C(F)(F)F)c1 [Compound 599] | 8.85 µM | 3.05 µM | 2.9
3.57 µM | ≥ 10 µM | 5.08 µM | 2 | 5.25 µM | 0.82 µM | 6.4 | CC(C)([C@H]1C[C@@H](NS(=O)(=O)c2ccc(Cl)c(F)c2)C1)S(=O)(=O)c1cc(F)cc(C(F)(F)F)c1 [Compound 600] | 6.93 µM | 2.22 µM | 3.1
